Experimental findings from patent publication US7745390B2, “Antimicrobial peptides” (priority 2005, dated 2010) are described below.

The structures appear in SMILES notation. Square brackets hold non-standard residues; d marks the D form. Peptide text beside a SMILES is read from it.

For one experiment, the system named is S. aureus. Nature of the experiment: Mouse wound model of luminescent S. aureus infection. The format is in vivo, BALB/c mice. From the text:
In this protocol, BALB/c mice of 4-6 weeks of age were exposed to wounds on their backs, then inoculated with an infection of S. aureus, which had 10^5 cfu per pocket (2×10^7 […] DMEM) The S. aureus had been transfected with a plasmid containing luciferase as well as the substrate for luciferase. Using a special camera, light is detected from living bacteria in the wound. The light intensity is converted to a color scale. Controls received no peptide, and the treatment group received peptide at the indicated dose. Animals were imaged at 1, 3, 6 and 24 hrs.

The subject of another experiment is candida albicans SC5314. The experiment can be described thus: Percent survival of Candida albicans in phosphate buffer. The following applies: 37° C., 90 min. incubation. It counts as cell-based. Also noted: dose or concentration left out as unconfirmed. From the text: Germ tube formation is essential to Candida toxicity, so agents that prevent this (even in the absence of killing the organism) could have significant activity in vivo.

A further experiment concerns B. cereus. The format is cell-based. Particulars: pH 7.2. In short, it runs like this: (§1)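 First, peptides in 10 mM phosphate pH 7.2 with 0.03% LB meet bacteria (~5×10^6 CFU/ml). Second, incubation runs 3 h at 37 °C. Third, LB is added and plates grow overnight before OD600 reading.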
The test system of a further experiment is Salmonella. It counts as cell-based, S. typhimurium. The following applies: pH 7.2. An outline of the steps:
as §1

Consider `CSCC[C@H](NC(=O)[C@H](Cc1ccccc1)NC(=O)[C@@H](CCCNC(=N)N)NC(=O)[C@@H](CCCNC(=N)N)NC(=O)[C@H](CO)NC(=O)[C@@H](NC(=O)[C@@H](CCCNC(=N)N)NC(=O)[C@@H](CCCNC(=N)N)NC(=O)[C@@H](CCCNC(=N)N)NC(=O)[C@@H](CCCNC(=N)N)NC(=O)[C@@H](CCCNC(=N)N)NC(=O)[C@@H](CCCNC(=N)N)NC(=O)[C@H](N)CCCNC(=N)N)C(C)C)C(=O)N[C@H](CCCNC(=N)N)C(=O)N[C@H](CCCNC(=N)N)C(=O)O` [Peptide G11.46, rrrrrrrVSrrFMrr] (H-[dR][dR][dR][dR][dR][dR][dR]VS[dR][dR]FM[dR][dR]-OH; N-terminus and C-terminus assumed), for which the “light units from S. aureus in wound” value with S. aureus (25 μg and 100 μg, data not shown) was “significant reduction in light units”. The “light units from S. aureus in wound” value in the experiment on S. aureus (100 μg, after 6 hrs.) is given as “light units approached levels obtained with the blank”. The recovery of bacteria entry in the experiment with S. aureus (by 24 hours) is listed as “some recovery of bacteria by 24 hours”. The “activity against candida albicans SC5314” value in the experiment on candida albicans SC5314 is reported as “active”. In addition, in the experiment on B. cereus, the “B. cereus MIC” value was determined as 0.35 µM and half-maximal inhibition (IC50) required 200 nM. In the experiment with Salmonella, the IC50 worked out at 210 nM and the “Salmonella MIC” value was determined as 0.7 µM.

Broadly, the IC50 is the concentration that inhibits the measured activity by half.
